One data set concerns HEK293 cells. Description: Celltiter Glo viability assay, HEK293. Format: cell-based. Particulars: HEK293 EC50 over NLG AC40. The source says:
(§1) The HTS approach using the bioluminescent N-linked glycosylation reporter (CCR 2011) in D54-ERLucT and D54-LucT cells has been previously described (Bennett, et al., Transl Oncol 2013, 6, 382-391). Briefly, the primary cell-based screen detects site occupancy of NLG sequons using a modified luciferase protein translated into the ER. […] The methodology for the primary (D54-ERlucT), secondary (D54-LucT), and tertiary (luciferase inhibition) screens as well and toxicity assays with CelltitreGlo are deposited in Pubchem (AID 588693).
(§2) To better understand the connection between structure and activity, analogs were prepared and tested in the D54-ERLucT cell based assay for inhibition of N-linked glycosylation (FIG. 1B). The assay was used to estimate and compare AC40 values among analogs and to guide the design of improved compounds that inhibited N-linked glycosylation. This effort generated 36 unique compounds with modifications to the amine component of the sulfonamide functionality (red), the pyrrolidine moiety (blue) or the methylaminothiazole group (green). Generally, incorporation of larger sulfonamides (i.e., larger secondary amines appended to the sulphone) was not well tolerated, resulting in erosion of potency (7 analogs). However, steric interactions could be mitigated by the introduction of a hydrogen bond accepting oxygen in a larger cyclic amine. Thus, morpholine was determined to be an acceptable surrogate for the dimethylamine component of the sulfonamide (FIGS. 1A-1D). The pyrrolidine group (blue) was replaced with various alkyl, cycloalkyl, and amine groups (7 compounds). The aminothiazole moiety was derivatized most extensively of all three regions (green highlighted area, 22 analogs). […] Analogs with the highest potency in the luciferase assay were retested with western blot analysis to insure that measurements of luciferase activation corresponded to loss of N-linked glycosylation.
For orientation: In ATP-based viability assays light output follows the ATP content of the culture.

Data set [1] in a line: Celltiter Glo viability assay, HEK293. It is filed as cell-based. Particulars: human, HEK293 cells; HEK293, 72 h of compound exposure; read-out: Cytotoxicity Assay Mean EC50.
Source text: as §1, §2

Another data set has as its system cyclin D1. Description: Cyclin D1 expression (qRT-PCR, western blot), PC9. Format: cell-based, human. The procedure: FIGS. 5A-5G illustrate NGI-1 induces G1 arrest and senescence in EGFR addicted tumor cells. FIG. 5A illustrates cell cycle distribution of PC9 cells after 24 h NGI-1 treatment for 24 h determined by flow cytometry. […] FIG. 5B illustrates cell cycle distribution of A549 cells after 24 h NGI-1 treatment for 24 h determined by flow cytometry. FIG. 5C illustrates western blot time course of cyclin D1 expression in PC9 and A549 cells after NGI-1 treatment. FIG. 5D illustrates quantitative real-time PCR analysis of PC9 and A549 cells. A time course of cyclin D1 expression levels relative to GAPDH is represented. […] FIG. 5F illustrates senescence of PC9 cells explored by: cell autofluorescence, measured by flow cytometry using a detector for PE/YFP; lipofuscin accumulation, detected by confocal laser scanning microscopy using an excitation laser of 405 nm with acquired signals from spectrums of yellow 575-620 nm; and morphology changes, enlarged vs. flattened. […] Significance was calculated using a T test (*p<0.05. **p<0.01). FIG. 5G illustrates senescence of A549 cells explored by: cell autofluorescence, measured by flow cytometry using a detector for PE/YFP; lipofuscin accumulation, detected by confocal laser scanning microscopy using an excitation laser of 405 nm with acquired signals from spectrums of yellow 575-620 nm; and morphology changes, enlarged vs. flattened. […]

The values that follow come from patent publication US11219625B2, “Inhibitors of N-linked glycosylation and methods using same” (YALE UNIVERSITY, priority 2015, dated 2022).

As usually defined, the EC50 is the midpoint of the concentration-response curve. With `Cc1cnc(NC(=O)c2cc(S(=O)(=O)N(C)C)ccc2N2CCCC2)s1` [NGI-1, 5-(N,N-Dimethylsulfamoyl)-N-(5-methylthiazol-2-yl)-2-(pyrrolidin-1-yl)benzamide], the “Selectivity (EC50/AC40)” value with HEK293 cells is listed as >172. The EC50 at 72 h in data set [1] was > 30 µM. Moreover, the “cyclin D1 reduced, protein level” value with cyclin D1 (PC9) came out at 40%. In addition, in the data set on cyclin D1 (PC9, p<0.01), the “cyclin D1 reduced, mRNA level” value is listed as 40%±15%.
